In ChEMBL document CHEMBL1201862, “PubChem BioAssay data set” (2004):
Active and inactive are the calls of the source.

Experiments:
[1] = target: Peroxisome proliferator-activated receptor gamma/Nuclear receptor coactivator 2 (Homo sapiens, UniProt P37231); test: (§1) TR-FRET dose response biochemical High Throughput Screening assay for agonists of the steroid receptor coactivator 2 (SRC-2) recruitment by the peroxisome proliferator-activated receptor gamma (PPAR gamma): non-selective agonists. [Related pubchem assays: 1297, 1032 ]; assay type: functional
[2] = target: Peroxisome proliferator-activated receptor gamma/Nuclear receptor coactivator 1 (Homo sapiens, UniProt P37231); test: as §1, with “1 (SRC-1)” for “2 (SRC-2)”, “assays (depositor defined):AID1300, AID1808, AID504735, AID631]” for “assays: 1297, 1032 ]”; assay type: protein assay
[3] = target: Protein-tyrosine kinase 2-beta (Homo sapiens, UniProt Q14289);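 also: potency of inhibitors of PYK2 kinase phosphorylation of poly-GT substrate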
[4] = target: T1, Peroxisome proliferator-activated receptor gamma/Nuclear receptor corepressor 2 (Homo sapiens, UniProt P37231+Q9Y618); test: Counterscreen for NR2E3 inverse agonists: TR-FRET-based biochemical high throughput dose response assay to identify inverse agonists of the interaction between peroxisome proliferator-activated receptor gamma (PPARg) and nuclear receptor co-repressor 2 (NCOR2).; assay type: functional
[5] = target: Peroxisome proliferator-activated receptor gamma/Nuclear receptor coactivator 3 (Homo sapiens, UniProt P37231); test: as §1, with “3 (SRC-3)” for “2 (SRC-2)”, “1301 (Confirmation screen.), 1048 (Primary screen.)]” for “1297, 1032 ]”; assay type: functional
[6] = target: T2, Photoreceptor-specific nuclear receptor (Homo sapiens, UniProt Q9Y5X4); test: NR2E3 inverse agonists, dose response, biochemical, TR-FRET (AID 463256); assay type: functional
[7] = target: FAD-linked sulfhydryl oxidase ALR (Homo sapiens, UniProt P55789); test: inhibitors of human ALR sulfhydryl oxidase, dose response, biochemical, H2O2 detection, luminescence, cherry-pick (AID 493248)
[8] = target: Bifunctional protein GlmU (Mycobacterium tuberculosis, UniProt P9WMN3); test: Inhibitors of Mycobacterial Glucosamine-1-phosphate acetyl transferase (GlmU). Secondary screen.; set-up: species or system Mycobacterium tuberculosis H37Rv
Estrogen receptor beta [9] = target: T3, Estrogen receptor beta (Homo sapiens, UniProt Q92731); test: ERβ–SRC-3 coactivator interaction inhibitors, confirmation, orthogonal assay, biochemical, ELISA, streptavidin-HRP readout (AID 1060)
Estrogen receptor = target: T4, Estrogen receptor (Homo sapiens, UniProt P03372);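 also: potency for inhibiting coactivator peptide recruitment to the receptor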
T4 sequence (P03372 whole entry): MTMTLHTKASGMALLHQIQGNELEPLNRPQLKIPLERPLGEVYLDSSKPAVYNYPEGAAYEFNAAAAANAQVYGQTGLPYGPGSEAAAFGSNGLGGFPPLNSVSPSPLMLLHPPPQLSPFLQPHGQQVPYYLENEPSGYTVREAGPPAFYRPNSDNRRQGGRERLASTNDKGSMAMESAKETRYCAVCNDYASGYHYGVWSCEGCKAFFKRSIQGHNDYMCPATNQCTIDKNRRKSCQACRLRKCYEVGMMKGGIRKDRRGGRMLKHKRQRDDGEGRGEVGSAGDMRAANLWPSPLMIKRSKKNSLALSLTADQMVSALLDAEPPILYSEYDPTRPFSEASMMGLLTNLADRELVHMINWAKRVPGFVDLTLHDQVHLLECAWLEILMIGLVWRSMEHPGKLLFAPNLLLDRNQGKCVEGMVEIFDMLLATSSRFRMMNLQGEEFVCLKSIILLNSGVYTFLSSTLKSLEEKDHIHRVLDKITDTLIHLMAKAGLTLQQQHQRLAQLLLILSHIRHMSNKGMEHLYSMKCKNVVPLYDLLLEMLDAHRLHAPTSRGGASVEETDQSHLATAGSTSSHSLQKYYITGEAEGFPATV

[10] = target: T1, Peroxisome proliferator-activated receptor gamma/Nuclear receptor corepressor 2; assay type: functional
Phospholipase A2 = Phospholipase A2 (Homo sapiens, UniProt P04054); assay type: functional;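 also: confirmatory dose-response counterscreen on phospholipase A2, testing hits that came from an ultra-high-throughput screen for ATG4B inhibitors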
Large T antigen = Large T antigen (Simian virus 40, UniProt P03070); assay type: functional, Betapolyomavirus macacae;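 also: Confirmatory-stage PubChem screen for compounds that inhibit SV40 T antigen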
Estrogen receptor beta [11] = target: T3, Estrogen receptor beta
[12] = target: T2, Photoreceptor-specific nuclear receptor; assay type: functional
Cysteine protease ATG4B = target: T5, Cysteine protease ATG4B (Homo sapiens, UniProt Q9Y4P1); assay type: functional;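 also: Fluorescence-based dose-response confirmation assay measuring inhibition of ATG4B activity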
T5 sequence (Q9Y4P1 whole entry): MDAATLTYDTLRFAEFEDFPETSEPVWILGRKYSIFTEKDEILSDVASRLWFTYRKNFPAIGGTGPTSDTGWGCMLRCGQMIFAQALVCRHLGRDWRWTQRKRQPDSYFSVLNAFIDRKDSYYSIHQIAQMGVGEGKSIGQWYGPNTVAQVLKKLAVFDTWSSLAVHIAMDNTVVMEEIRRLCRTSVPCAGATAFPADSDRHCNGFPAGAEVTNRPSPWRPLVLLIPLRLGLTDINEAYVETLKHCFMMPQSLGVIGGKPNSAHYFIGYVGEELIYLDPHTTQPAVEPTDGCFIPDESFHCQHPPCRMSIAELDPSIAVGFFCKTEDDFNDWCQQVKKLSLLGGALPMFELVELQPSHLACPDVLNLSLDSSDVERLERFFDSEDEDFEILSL

[13] = Artemis endonuclease inhibitor potency, dose response, biochemical, fluorescence intensity (AID 720701); assay type: functional;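 also: Artemis endonuclease enzyme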
[14] = target: E3 ubiquitin-protein ligase Mdm2 (Homo sapiens, UniProt Q00987); test: enhancers of MDM2-luciferase reporter signal, concentration-effect titration, project on inhibitors of MDM2 ubiquitin ligase, cellular assay, luminescent readout, 384-well plate format (AID 1394); assay type: functional;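 also: MDM2 E3 inhibitors raise luminescence so EC50 is for signal enhancement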
Ephrin type-A receptor 4 = Ephrin type-A receptor 4 (Mus musculus, UniProt Q03137); test: inhibitors of EphA4 binding to KYL peptide, primary screen, biochemical, colorimetric, mouse EphA4 (AID 689); assay type: functional
[15] = target: Heat shock protein HSP 90-alpha (Homo sapiens, UniProt P07900); test: Luminescence-based dose response biochemical high throughput screening assay for inhibitors of the Heat Shock Protein 90 (HSP90). [Related pubchem assays: 1831 (Summary AID.), 1846 (Confirmation screen.), 1789 (Primary screen.)]
H4 = test: Luminescence Cell-Based Dose Response HTS to Identify Activators of 5'UTR Stem-Loop Driven Prion Protein mRNA Translation in H4 Neuroglioblastoma Cells. [Related pubchem assays: 1829 (Project Summary), 1814 (Primary HTS)]; assay type: functional; settings: Homo sapiens
[16] = Luminescence Cell-Based Dose Confirmation to Identify Activators of 5'UTR Stem-Loop Driven Alpha-Synuclein mRNA Translation in H4 Neuroglioblastoma Cells. [Related pubchem assays: 1829 (Project Summary), 1814 (Primary HTS)]; assay type: functional
[17] = Luminescence Cell-Based Dose Confirmation HTS to Identify Activators of 5'UTR Stem-Loop Driven Alpha-Synuclein mRNA Translation in H4 Neuroglioblastoma Cells. [Related pubchem assays: 1829 (Project Summary), 1814 (Primary HTS)]; assay type: functional
[18] = Luminescence Cell-Based Dose Response to Identify Activators of 5'UTR Stem-Loop Driven Prion Protein mRNA Translation in H4-C Neuroglioblastoma Cells. [Related pubchem assays: 1829 (Project Summary), 1814 (Primary HTS)]; assay type: functional
[19] = Luminescence Cell-Based Dose Response to Identify Activators of Luciferase Translation or Activity in H4-C Neuroglioblastoma Cells. [Related pubchem assays: 1829 (Project Summary), 1814 (Primary HTS)]; assay type: functional
[20] = Luminescence Cell-Based Dose Response HTS to Identify Activators of Luciferase Translation or Activity in H4 […] Cells. [Related pubchem assays: 1829 (Project Summary), 1814 (Primary HTS)]; assay type: functional
[21] = system: Streptococcus sp. 'group A'; test: growth inhibition of control SK(-) GAS strain, dose response, counter-screen for streptokinase expression inhibitor project, luminescence, kanamycin, BacTiterGlo, confirmation (AID 1900); assay type: functional, organism-based
Cytochrome P450 3A4 = Cytochrome P450 3A4 (Homo sapiens, UniProt P08684);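 also: CYP3A4 tested as one member of a cytochrome P450 panel screen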
Streptococcus = test: Group A Streptococcus viability loss, dose response, counter-screen for streptokinase expression inhibitor project, luminescence, BacTiterGlo (AID 1915); assay type: functional, organism-based;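 also: potency for reduction of bacterial viability or growth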
Streptokinase A = target: T6, Streptokinase A (Streptococcus pyogenes serotype M1, UniProt P10520); test: S. pyogenes streptokinase expression inhibitors, potency, dose response, plasminogen activation absorbance, OD405 (AID 1914); assay type: functional, Streptococcus pyogenes M1 GAS;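 also: secreted streptokinase activity via plasminogen activation per viability signal from cell pellet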
T6 sequence (P10520 whole entry): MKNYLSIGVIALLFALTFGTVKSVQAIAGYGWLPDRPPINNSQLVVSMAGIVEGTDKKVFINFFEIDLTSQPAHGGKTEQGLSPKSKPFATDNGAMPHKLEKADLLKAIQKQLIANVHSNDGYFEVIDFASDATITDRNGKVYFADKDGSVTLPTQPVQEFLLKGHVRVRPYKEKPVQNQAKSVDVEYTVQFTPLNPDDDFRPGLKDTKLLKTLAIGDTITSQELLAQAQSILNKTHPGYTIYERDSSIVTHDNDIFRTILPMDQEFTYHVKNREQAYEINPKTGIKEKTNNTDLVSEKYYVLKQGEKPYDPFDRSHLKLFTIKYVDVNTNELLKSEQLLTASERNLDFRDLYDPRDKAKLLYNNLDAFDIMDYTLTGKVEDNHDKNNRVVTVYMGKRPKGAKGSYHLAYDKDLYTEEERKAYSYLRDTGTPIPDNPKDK

[22] = target: Sphingosine 1-phosphate receptor 2 (Homo sapiens, UniProt O95136); test: Dose Response Cell Based Assay for Antagonists of the S1P2 Receptor. [Related pubchem assays: 856, 736 ]; assay type: functional
[23] = target: Mitogen-activated protein kinase 10 (Homo sapiens, UniProt P53779); test: Dose response biochemical screening assay for inhibitors of c-Jun N-Terminal Kinase 3 (JNK3). [Related pubchem assays: 746 ]
Cytochrome P450 2D6 = Cytochrome P450 2D6 (Homo sapiens, UniProt P10635);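 also: CYP2D6 member of a cytochrome P450 panel assay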
[24] = M. tuberculosis growth inhibition, HTS (AID 449762); assay type: functional

Chain of Cytochrome P450 3A4 (P08684 whole entry): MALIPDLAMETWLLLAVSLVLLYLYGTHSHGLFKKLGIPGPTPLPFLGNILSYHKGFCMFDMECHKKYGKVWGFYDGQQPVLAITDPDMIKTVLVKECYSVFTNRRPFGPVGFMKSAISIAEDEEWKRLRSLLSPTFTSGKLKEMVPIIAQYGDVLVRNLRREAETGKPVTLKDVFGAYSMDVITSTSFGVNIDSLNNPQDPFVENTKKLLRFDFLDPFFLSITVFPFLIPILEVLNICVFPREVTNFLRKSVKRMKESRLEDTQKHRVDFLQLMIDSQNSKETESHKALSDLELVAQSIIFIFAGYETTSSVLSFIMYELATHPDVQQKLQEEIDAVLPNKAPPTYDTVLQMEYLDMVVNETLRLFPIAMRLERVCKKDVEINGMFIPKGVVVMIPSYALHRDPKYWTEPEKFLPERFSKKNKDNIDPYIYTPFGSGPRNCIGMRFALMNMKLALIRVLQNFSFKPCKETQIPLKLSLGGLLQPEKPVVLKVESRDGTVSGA
Chain of Protein-tyrosine kinase 2-beta (Q14289 whole entry): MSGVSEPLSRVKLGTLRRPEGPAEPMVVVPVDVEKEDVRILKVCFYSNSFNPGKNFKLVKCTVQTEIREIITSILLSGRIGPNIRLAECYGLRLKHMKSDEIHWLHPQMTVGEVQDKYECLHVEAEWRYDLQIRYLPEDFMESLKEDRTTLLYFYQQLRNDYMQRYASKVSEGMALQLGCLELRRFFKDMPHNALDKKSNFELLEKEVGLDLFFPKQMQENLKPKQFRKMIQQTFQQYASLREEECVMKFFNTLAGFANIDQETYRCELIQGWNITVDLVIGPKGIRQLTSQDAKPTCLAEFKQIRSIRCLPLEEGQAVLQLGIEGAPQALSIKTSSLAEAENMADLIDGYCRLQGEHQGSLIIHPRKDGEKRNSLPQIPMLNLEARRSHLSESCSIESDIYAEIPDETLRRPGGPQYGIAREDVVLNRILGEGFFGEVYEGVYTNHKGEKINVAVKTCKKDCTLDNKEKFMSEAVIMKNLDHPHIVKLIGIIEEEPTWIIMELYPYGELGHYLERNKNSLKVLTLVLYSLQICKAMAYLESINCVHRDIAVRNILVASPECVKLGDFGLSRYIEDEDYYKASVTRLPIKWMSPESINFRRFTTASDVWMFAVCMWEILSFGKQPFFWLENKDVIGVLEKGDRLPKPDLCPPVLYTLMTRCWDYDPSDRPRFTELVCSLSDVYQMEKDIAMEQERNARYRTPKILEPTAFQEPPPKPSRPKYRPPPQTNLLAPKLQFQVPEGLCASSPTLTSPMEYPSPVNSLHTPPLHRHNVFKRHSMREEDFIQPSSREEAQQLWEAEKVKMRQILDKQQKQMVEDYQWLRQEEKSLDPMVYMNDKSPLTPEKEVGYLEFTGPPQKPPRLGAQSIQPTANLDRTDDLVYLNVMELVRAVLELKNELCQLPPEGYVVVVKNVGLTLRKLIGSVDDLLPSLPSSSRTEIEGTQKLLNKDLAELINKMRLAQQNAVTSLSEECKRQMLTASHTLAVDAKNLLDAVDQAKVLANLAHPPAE
T2 sequence (Q9Y5X4 whole entry): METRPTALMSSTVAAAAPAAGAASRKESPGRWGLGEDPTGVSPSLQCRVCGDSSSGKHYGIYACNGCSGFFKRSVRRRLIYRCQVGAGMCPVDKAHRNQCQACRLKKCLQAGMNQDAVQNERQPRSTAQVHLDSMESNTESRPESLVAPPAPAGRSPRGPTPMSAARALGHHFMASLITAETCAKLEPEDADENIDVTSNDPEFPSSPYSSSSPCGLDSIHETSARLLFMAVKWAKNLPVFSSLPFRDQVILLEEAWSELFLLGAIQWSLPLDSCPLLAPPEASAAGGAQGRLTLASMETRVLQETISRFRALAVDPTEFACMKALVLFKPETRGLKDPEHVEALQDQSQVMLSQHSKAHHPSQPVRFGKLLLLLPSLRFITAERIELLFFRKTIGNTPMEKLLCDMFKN
T3 sequence (Q92731 whole entry): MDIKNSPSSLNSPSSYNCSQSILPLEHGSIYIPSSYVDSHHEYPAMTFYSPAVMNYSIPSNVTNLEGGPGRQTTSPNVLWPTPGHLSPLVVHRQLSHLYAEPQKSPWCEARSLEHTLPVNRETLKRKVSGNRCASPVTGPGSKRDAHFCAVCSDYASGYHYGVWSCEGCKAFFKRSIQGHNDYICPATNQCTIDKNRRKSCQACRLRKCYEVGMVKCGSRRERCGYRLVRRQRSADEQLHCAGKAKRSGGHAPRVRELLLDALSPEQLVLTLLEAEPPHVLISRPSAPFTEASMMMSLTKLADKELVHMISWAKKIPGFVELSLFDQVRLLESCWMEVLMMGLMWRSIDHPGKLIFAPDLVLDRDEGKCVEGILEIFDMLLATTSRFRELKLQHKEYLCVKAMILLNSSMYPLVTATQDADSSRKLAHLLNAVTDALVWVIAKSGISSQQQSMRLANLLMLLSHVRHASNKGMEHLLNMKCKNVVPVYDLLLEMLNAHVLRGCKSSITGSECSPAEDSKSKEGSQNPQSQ
Chain of Sphingosine 1-phosphate receptor 2 (O95136 whole entry): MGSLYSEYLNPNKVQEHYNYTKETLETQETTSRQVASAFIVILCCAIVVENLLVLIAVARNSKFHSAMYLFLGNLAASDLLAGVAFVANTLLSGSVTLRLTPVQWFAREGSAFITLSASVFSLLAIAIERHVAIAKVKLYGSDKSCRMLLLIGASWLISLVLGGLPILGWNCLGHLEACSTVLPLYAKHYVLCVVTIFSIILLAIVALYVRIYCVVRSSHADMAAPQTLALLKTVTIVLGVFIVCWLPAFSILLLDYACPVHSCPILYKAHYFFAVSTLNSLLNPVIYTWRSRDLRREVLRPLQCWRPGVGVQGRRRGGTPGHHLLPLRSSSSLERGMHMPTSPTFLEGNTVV
Chain of FAD-linked sulfhydryl oxidase ALR (P55789 whole entry): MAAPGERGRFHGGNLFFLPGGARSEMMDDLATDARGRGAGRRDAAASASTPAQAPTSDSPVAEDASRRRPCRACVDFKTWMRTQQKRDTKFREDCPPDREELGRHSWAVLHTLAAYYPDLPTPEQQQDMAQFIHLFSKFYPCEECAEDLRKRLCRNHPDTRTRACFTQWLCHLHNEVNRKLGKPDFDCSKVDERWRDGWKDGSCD
Chain of Large T antigen (P03070 whole entry): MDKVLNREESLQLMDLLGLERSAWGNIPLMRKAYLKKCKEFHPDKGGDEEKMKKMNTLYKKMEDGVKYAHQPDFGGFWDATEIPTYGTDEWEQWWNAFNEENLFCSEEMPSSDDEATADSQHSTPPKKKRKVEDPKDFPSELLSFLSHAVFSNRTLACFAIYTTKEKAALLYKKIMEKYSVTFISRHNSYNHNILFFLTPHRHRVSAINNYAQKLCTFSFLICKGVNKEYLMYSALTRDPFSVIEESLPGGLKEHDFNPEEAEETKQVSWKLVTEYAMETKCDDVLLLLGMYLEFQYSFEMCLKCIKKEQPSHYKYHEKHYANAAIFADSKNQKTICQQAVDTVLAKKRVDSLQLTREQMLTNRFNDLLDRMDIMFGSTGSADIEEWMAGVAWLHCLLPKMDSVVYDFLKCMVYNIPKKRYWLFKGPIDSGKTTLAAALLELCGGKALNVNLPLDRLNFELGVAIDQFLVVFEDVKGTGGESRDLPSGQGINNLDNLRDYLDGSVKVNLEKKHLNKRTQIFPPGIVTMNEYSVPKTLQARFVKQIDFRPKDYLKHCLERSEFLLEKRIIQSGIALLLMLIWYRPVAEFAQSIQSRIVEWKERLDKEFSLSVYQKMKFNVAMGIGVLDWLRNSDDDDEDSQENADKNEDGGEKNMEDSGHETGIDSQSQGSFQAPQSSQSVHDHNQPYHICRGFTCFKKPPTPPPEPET
Chain of Bifunctional protein GlmU (P9WMN3 whole entry): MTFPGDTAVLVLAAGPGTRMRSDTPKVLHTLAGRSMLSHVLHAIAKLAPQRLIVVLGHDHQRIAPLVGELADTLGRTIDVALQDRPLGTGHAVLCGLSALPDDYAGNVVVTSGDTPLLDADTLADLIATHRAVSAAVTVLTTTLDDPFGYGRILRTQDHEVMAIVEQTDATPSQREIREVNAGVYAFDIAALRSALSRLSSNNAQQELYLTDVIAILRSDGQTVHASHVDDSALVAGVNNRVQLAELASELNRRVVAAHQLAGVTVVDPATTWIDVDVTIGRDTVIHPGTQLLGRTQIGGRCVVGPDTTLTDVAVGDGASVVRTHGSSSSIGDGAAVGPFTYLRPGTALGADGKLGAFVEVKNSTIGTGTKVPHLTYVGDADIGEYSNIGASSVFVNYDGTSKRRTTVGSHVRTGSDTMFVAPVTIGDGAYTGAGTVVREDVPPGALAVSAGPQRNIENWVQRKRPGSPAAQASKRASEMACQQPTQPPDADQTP
Chain of E3 ubiquitin-protein ligase Mdm2 (Q00987 whole entry): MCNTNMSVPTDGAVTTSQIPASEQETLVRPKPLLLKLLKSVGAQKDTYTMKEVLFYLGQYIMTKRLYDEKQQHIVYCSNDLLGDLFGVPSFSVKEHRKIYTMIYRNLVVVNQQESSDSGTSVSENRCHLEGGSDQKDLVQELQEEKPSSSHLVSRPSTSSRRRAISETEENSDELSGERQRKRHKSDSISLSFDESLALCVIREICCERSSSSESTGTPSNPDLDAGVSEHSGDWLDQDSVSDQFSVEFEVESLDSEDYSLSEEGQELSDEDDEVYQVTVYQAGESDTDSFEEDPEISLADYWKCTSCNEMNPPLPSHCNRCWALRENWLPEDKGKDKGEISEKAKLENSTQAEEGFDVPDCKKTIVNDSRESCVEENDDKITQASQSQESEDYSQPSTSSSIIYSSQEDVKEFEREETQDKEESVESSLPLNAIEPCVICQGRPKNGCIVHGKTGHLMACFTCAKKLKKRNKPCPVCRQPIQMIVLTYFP
Chain of Phospholipase A2 (P04054 whole entry): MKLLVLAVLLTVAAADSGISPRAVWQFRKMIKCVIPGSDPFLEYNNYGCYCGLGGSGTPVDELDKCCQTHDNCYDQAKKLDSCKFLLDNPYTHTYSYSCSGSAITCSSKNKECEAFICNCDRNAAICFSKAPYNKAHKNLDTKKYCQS

COc1ccc(C(=O)Nc2nc3ccc4nc(C)sc4c3s2)cc1
EC50 [1]: 37.9 µM (not active)
EC50 [2]: 45.2 µM (inactive)
IC50 [3]: 1.45 µM (active)
IC50 [4]: 2.19 µM (active)
EC50 [5]: 58.7 µM (not active)
IC50 [6]: 0.862 µM (active)

O=C(O)c1cc(-c2ccco2)nc2ccc(Br)cc12
AC50 [7]: 0.785 µM (active)
IC50 [8]: 81.9 µM (active)
IC50 (Estrogen receptor beta [9]): < 0.023 µM (not active)
IC50 (Estrogen receptor): 47.6 µM (not active)
IC50 [10]: 1.38 µM (active)
IC50 (Phospholipase A2): 12.2 µM (active)
IC50 (Large T antigen): 78.6 µM (active)
IC50 (Estrogen receptor beta [11]): 9.82 µM (active)
IC50 [12]: > 39.8 µM (not active)
IC50 (Cysteine protease ATG4B): 9.96 µM (active)
IC50 [13]: > 20 µM (inactive)

COc1ccc(OC)c(CNn2c(-c3ccccc3F)nc3ccccc3c2=O)c1
EC50 [14]: 85 µM (not active)

Cc1occc1-c1nnc(SCC(=O)Nc2ccccc2-c2ccccc2)n1C
IC50 (Ephrin type-A receptor 4): > 100 µM (not active)

CCOC(=O)c1sc(NC(=O)c2ccc(C)o2)nc1C
IC50 [15]: 6.55 µM (active)
EC50 (H4): 3.76 µM (active)
EC50 [16]: 0.793 µM (active)
EC50 [17]: 0.306 µM (active)
EC50 [18]: 0.541 µM (active)
EC50 [19]: 0.421 µM (active)
EC50 [20]: < 0.1 µM (inconclusive)

Cc1nn(-c2ccccc2)c2c1C(c1ccc(O)c(O)c1)N1C(=N2)C(Nc2ccccc2)=Nc2ccccc21 (stereo unspecified)
EC50 [21]: 0.772 µM (active)
AC50 (Cytochrome P450 3A4): 14.1 µM (inconclusive)
EC50 (Streptococcus): 5.88 µM (active)
EC50 (Streptokinase A): 1.53 µM (active)
IC50 [22]: 4.68 µM (active)

CCOC(=O)c1cccc2c1-c1ccccc1/C2=N/O
IC50 [23]: 11.5 µM (not active)
AC50 (Cytochrome P450 3A4): 28.2 µM (inconclusive)
AC50 (Cytochrome P450 2D6): inconclusive
IC50 [3]: 7.48 µM (active)

O=C(N/N=C/c1c(F)c(F)c(F)c(F)c1F)c1cccc(S(=O)(=O)N2CCOCC2)c1
IC50 [24]: > 100 µM (active)
